4 molecules from US10501461B2, “Tyrosine amide derivatives as Rho-kinase inhibitors” (CHIESI FARMACEUTICI S.P.A., priority 2017, dated 2019) can be followed below.

Assay [1] addresses Rho kinase 2 (ROCK-II) (Homo sapiens, UniProt O75116). As to the kind of experiment: In vitro Rho kinase inhibitory activity assay (ADP-Glo), Rho kinase 2. The settings on record: 10 μM ATP, 25° C., expressed as range of activity. The assay is classed as biochemical. A digest of the protocol: (§1)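 ADP-Glo luminescence read-out. Enzyme (ROCK1 or ROCK2) + compound 30 min, then 10 μM ATP final, 1 h, 25 °C; 2.5 μM MBP peptide substrate, Tris pH7.5/MgCl2/BSA/DTT buffer, 1% DMSO. IC50 from variable-slope fit (0–100% fixed); Ki via Cheng-Prusoff.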
(ADP-Glo first removes unused ATP, then detects ADP through luciferase.)

The target in assay [2] is Rho kinase 1 (ROCK-I) (Homo sapiens, UniProt Q13464). Description: In vitro Rho kinase inhibitory activity assay (ADP-Glo), Rho kinase 1. Conditions: 10 μM ATP, 25° C., expressed as range of activity. The assay is classed as biochemical. A digest of the protocol: as §1
Chain of Rho kinase 1 (ROCK-I) (Q13464 whole entry): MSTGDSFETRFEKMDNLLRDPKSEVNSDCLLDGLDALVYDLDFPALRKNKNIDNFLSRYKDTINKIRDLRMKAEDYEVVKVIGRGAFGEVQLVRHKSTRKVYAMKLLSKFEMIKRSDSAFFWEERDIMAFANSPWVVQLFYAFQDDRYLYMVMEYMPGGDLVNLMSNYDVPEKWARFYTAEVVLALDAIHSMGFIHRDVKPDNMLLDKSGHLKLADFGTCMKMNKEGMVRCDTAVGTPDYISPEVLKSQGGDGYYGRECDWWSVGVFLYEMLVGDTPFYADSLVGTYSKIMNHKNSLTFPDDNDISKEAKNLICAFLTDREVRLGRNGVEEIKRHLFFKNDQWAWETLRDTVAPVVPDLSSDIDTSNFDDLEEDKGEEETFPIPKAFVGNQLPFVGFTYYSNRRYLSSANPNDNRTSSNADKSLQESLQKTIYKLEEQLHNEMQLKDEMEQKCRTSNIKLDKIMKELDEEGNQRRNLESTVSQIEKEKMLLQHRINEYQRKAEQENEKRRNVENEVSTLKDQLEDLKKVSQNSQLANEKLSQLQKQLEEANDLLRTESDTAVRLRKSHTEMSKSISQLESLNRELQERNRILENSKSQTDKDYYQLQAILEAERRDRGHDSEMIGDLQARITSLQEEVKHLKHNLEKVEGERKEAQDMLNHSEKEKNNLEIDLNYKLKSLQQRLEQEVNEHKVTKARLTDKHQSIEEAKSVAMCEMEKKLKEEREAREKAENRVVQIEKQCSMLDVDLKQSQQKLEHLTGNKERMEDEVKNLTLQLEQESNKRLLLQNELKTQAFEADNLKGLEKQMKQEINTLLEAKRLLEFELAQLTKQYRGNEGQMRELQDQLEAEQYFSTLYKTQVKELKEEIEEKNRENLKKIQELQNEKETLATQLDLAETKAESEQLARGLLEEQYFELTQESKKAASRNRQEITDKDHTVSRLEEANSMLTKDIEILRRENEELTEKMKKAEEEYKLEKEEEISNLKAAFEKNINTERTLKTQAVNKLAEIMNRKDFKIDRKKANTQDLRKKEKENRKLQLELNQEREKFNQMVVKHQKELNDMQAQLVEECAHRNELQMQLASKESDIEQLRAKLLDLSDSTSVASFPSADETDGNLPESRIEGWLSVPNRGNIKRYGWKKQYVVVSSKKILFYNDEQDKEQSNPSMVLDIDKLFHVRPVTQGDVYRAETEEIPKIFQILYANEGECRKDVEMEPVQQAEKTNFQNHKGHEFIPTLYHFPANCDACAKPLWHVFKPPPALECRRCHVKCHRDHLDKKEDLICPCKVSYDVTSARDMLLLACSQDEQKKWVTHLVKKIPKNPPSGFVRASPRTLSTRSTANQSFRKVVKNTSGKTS

Chain of Rho kinase 2 (ROCK-II) (O75116 whole entry): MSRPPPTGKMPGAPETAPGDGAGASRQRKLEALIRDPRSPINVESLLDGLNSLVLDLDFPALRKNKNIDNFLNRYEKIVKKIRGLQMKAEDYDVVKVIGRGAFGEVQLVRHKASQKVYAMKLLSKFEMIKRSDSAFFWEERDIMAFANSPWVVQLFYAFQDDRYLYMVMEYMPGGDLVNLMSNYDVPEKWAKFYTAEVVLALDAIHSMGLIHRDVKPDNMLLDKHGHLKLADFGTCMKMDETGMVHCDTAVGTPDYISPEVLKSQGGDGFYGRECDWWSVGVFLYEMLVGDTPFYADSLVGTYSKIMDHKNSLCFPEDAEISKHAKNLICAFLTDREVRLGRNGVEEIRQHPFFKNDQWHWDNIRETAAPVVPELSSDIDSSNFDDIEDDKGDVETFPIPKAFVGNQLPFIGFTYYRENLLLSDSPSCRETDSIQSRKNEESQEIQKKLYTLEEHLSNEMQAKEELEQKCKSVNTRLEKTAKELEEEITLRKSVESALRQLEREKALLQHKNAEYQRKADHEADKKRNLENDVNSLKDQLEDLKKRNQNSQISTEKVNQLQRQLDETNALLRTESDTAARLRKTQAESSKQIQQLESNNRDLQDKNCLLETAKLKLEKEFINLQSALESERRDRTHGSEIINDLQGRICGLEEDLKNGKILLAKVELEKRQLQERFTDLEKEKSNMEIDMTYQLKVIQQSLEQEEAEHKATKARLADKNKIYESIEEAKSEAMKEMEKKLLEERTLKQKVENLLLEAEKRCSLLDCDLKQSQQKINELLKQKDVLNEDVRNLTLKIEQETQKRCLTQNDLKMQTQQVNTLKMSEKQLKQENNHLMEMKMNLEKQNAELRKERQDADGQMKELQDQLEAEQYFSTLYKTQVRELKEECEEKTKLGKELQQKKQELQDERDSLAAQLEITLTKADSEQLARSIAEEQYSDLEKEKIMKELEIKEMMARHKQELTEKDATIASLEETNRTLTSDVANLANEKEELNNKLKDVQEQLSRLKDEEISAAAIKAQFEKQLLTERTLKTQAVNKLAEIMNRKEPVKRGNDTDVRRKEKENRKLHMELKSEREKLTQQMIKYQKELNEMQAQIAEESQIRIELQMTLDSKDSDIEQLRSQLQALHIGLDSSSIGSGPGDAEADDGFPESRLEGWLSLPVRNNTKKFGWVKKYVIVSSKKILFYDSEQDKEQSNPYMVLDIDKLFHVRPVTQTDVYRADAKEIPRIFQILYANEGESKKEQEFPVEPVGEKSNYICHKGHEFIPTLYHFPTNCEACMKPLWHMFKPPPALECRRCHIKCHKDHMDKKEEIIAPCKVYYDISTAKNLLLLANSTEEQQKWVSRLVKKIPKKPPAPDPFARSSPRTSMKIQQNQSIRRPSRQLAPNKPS

As to `Cc1c[nH]c2nccc(Oc3ccc(C[C@H](N)C(=O)N4CCNCC4)cc3F)c12` [Example 152, (S)-2-amino-3-(3-fluoro-4-((3-methyl-1H-pyrrolo[2,3-b]pyridin-4-yl)oxy)phenyl)-1-(piperazin-1-yl)propan-1-one], the Ki in assay [1] and in assay [2] was less than 3 nM in each case.
With `Cc1c[nH]c2nccc(Oc3ccc(C[C@H](N)C(=O)N4CCN(Cc5cccnc5)CC4)cc3F)c12` [Example 28, (S)-2-amino-3-(3-fluoro-4-((3-methyl-1H-pyrrolo[2,3-b]pyridin-4-yl)oxy)phenyl)-1-(4-(pyridin-3-ylmethyl)piperazin-1-yl)propan-1-one], the Ki in assay [1] and in assay [2] was less than 3 nM in each case.
For the molecule `Cc1c[nH]c2nccc(Oc3ccc(C[C@H](N)C(=O)NCCc4cnn(-c5ccccc5)c4)cc3F)c12` [Example 56, (S)-2-amino-3-(3-fluoro-4-((3-methyl-1H-pyrrolo[2,3-b]pyridin-4-yl)oxy)phenyl)-N-(2-(1-phenyl-1H-pyrazol-4-yl)ethyl)propanamide], the Ki in assay [1] and in assay [2] was less than 3 nM throughout.
With `Cc1c[nH]c2nccc(Oc3ccc(C[C@H](N)C(=O)N4C[C@H]5CNC[C@H]5C4)cc3F)c12` [Example 31, (S)-2-amino-3-(3-fluoro-4-((3-methyl-1H-pyrrolo[2,3-b]pyridin-4-yl)oxy)phenyl)-1-((3aR,6aS)-hexahydropyrrolo[3,4-c]pyrrol-2(1H)-yl)propan-1-one], the inhibitory constant (Ki) in assay [1] and in assay [2] was less than 3 nM throughout.
